Data set [1] deals with C57BL/6 mice. The data set can be described thus: Acute wheel running and locomotive activity. Format: in vivo. The protocol:
Male 6-week-old C57BL/6 mice (Envigo, Israel) were maintained under a 12-h light/dark cycle and fed ad libitum. A total of 32 animals were divided into four experimental groups (N=8 mice per group) receiving single doses of 40, 60, or 100 mg/kg of MEAI or vehicle (sterile water), which was administered via oral gavage two hours prior to the dark phase. The animals were monitored for 48 hours post-dose for drug tolerability, food and water intakes as well as activity and metabolic parameters. At the end of the experiment, the animals were euthanized, and tissues (brain, liver, fat, and kidney) and blood were collected and stored frozen for future analyses. To generate diet-induced obesity, C57BI6/J mice were fed either a high-fat diet (HFD) (60% of calories from fat, 20% from protein, and 20% from carbohydrates; Research Diet, D12492) or a standard laboratory diet (STD, 14% fat, 24% protein, 62% carbohydrates; NIH-31 rodent diet) for 18 weeks.
(§1) Wheel running and locomotive activity. The assessment of wheel running and locomotor activity was performed using the Promethion High-Definition Behavioral Phenotyping System (Sable Instruments, Inc., Las Vegas, NV, USA). Wheel revolutions were measured with a monitor that recorded voluntary wheel running activity, and locomotor activity was quantified using disruptions of infrared XYZ beam arrays, with a beam spacing of 0.25 cm.

For data set [2], the system named is C57BL/6 mice. The data set can be described thus: Sucrose preference test. Format: in vivo. The settings on record: single dose 40 mg/kg. As for the experimental part:
Sucrose Preference Test. Thirteen-week-old male C57BL/6 mice maintained on a STD and housed individually were habituated to two water bottles in their home cage for 48 h prior to the test. Baseline intake was measured by weighing the bottles. On the test day (Day 1), 2 h before the onset of the dark phase, fresh water and a 1.5% sucrose solution were added to the bottles, and mice were subsequently treated orally with MEAI (40 mg/kg, N=8) or sterile water (N=8). The mice were allowed to drink from either bottle freely for 24 h, after which the bottles were weighed to measure consumption. The study was repeated for an additional day (Day 2), with the bottles switched in position (in the cage) to account for side preference. The sucrose and water intake over the two days were averaged, and the sucrose preference index was calculated as the average consumed sucrose solution divided by the average volume of total consumed liquid (average water plus average sucrose solution).

The subject of data set [3] is DIO mouse model. The data set can be described thus: Chronic MEAI in DIO model: wheel running and locomotive activity. Format: in vivo, mice. The settings on record: 40 mg/kg/day. As for the experimental part:
(§2) Effect of MEAI on Obesity. Male C57BL/6 mice were used to establish DIO by feeding them a high-fat diet (HFD; 60% Kcal fat, 20% Kcal protein, and 20% Kcal carbohydrates; Research Diet, D12492) for 18 weeks. After this period, mice were treated with either vehicle (sterile water, N=8) or MEAI (N=11) daily for 28 days by gavage at a dose of 40 mg/kg/day. Age-matched control mice (N=10) on a standard diet (STD; 14% Kcal fat, 24% Kcal protein, 62% Kcal carbohydrates; NIH-31 rodent diet) and received vehicle daily. The body weight of all mice was monitored daily, and total body fat and lean mass were determined by EchoMRI-100H™ (Echo Medical Systems LLC, Houston, TX, USA). On Day 29, at the end of the experimental period, mice were euthanized by a cervical dislocation under anesthesia. The kidneys, brain, liver, and fat pads were removed and weighed, and samples were either snap-frozen or fixed in buffered 4% formalin. Trunk blood was collected to determine biochemical parameters.
as §1

The test system of data set [4] is DIO mouse model. Kind of data set: Hepatic triglyceride and cholesterol content, Oil Red O staining in DIO mice. Format: in vivo. The settings on record: 40 mg/kg/day. As for the experimental part:
as §2
Hepatic Triglyceride and Cholesterol Content. Liver tissue was extracted as described in (Tam et al., 2012), and its cholesterol and triglycerides contents were determined using a Cobas C-111 chemistry analyzer (Roche, Switzerland).
Histopathology. First, 5 μm paraffin-embedded liver sections from 5 animals per group were stained with hematoxylin-eosin staining. Liver images were captured using a Zeiss Axio Scope A1 light microscope (Carl Zeiss AG, Jena, Germany equipped with a Zeiss AxioCam ICc5 color camera. Ten random 40× fields of view were taken from each animal to obtained representative images.
Oil Red O staining. Liver cryosections (8 μm) were stained with Oil Red O (Cat #ab150678; Abcam) following the manufacturer's protocol. Images were acquired as described above. For quantitative analysis of Oil Red O staining, the area of lipid droplets in the liver cryosections was measured using the ImageJ software.

[5] abbreviates: single dose, 40 mg/kg and above.
Setting [6] is: in comparison with HFD-vehicle group.
The mark [7] stands for this setting: compared to HFD vehicle control.
The mark [8] stands for this setting: compared to HFD vehicle-treated group.

On to `COc1ccc2c(c1)CC(N)C2` (centres unmarked) [MEAI, 5-methoxy-2-aminoindan], for which, in the data set on C57BL/6 mice [1] (single dose 100 mg/kg), the voluntary wheel running entry was “significant suppression”. Also, the “total number of beam breaks (ambulatory and fine movements)” value with C57BL/6 mice [1] (single dose 40, 60, 100 mg/kg) is “no significant changes”. The voluntary wheel running result in the data set with C57BL/6 mice [1] (single dose 40 and 60 mg/kg) is “minor elevations”. In the data set on C57BL/6 mice [1] (setting [5]), the “directed voluntary activity (pedestrian locomotion)” value was “significant and dose-dependent increase”; the pedestrian speed result was “significant and dose-dependent increase”. Besides, the total pedometer count entry in the data set with C57BL/6 mice [1] (single dose, all doses tested (40, 60, 100 mg/kg)) is on record as “increase”. Besides, in the data set on C57BL/6 mice [2], the water intake levels result was “without any accompanying decrease”. Also, the “acute preference for sucrose solution” value in the data set with C57BL/6 mice [2] (1.5% sucrose vs water, most evident in initial 24-hour period) is “significantly reduced”. In addition, the “preference for sucrose solution” value in the data set on C57BL/6 mice [2] (subsequent 24-hour period) was “slight reduction”. In addition, in the data set with DIO mouse model [3] (HFD-fed mice), the “pedestrian locomotive activity, speed and total distance relative to STD-vehicle group (over-stimulatory effect)” value was “did not surpass the levels of the STD-vehicle treated group”; the “time spent engaging in various activities within the cage” value is “preference for voluntary activities”; the voluntary wheel running entry is recorded as “increased capability”. Moreover, the “voluntary actions such as pedestrian activity and grooming (ambulatory activity)” value with DIO mouse model [3] (HFD-fed mice, throughout the day, more prominent in dark phase) is listed as “significantly increased”. In the data set with DIO mouse model [3] (setting [6]), the pedestrian locomotion speed result is recorded as “increased”, the pedestrian locomotive activity result is listed as “increased” and the total distance travelled entry is given as “increased”. In addition, in the data set with DIO mouse model [4] (setting [7]), the hepatic cholesterol levels result is listed as “trend toward a reduction” and the liver triglycerides result is “significant reductions”. For the same compound, in the data set on DIO mouse model [4] (setting [8]), the “Oil Red O staining” value is given as “decrease” and the lipid vacuole numbers result is “reduced”.

The values above are taken from US20260224512A1, “USE OF 5-METHOXY-2-AMINOINDAN ("MEAI") IN METHODS FOR TREATING METABOLIC SYNDROME” (Clearmind Labs Corp., priority 2022, published 2026).
